Test results reported in patent US10975051B2, “Phenylsulfonamido-benzofuran derivatives and uses thereof in the treatment of proliferative diseases” (Memorial Sloan-Kettering Cancer Center, priority 2015, dated 2021).

What was measured:
BCL-2 = BCL-2 (Homo sapiens, UniProt P10415); conditions: Oltersdorf et al., Nature, 2005; cited from earlier work
BCL-XL = BCL-XL (Homo sapiens, UniProt Q07817); conditions: Oltersdorf et al., Nature, 2005; cited from earlier work
BCL-W = biological target: T1, BCL-W (Homo sapiens, UniProt Q92843); conditions: Oltersdorf et al., Nature, 2005; cited from earlier work
T1 sequence (Q92843 1-193): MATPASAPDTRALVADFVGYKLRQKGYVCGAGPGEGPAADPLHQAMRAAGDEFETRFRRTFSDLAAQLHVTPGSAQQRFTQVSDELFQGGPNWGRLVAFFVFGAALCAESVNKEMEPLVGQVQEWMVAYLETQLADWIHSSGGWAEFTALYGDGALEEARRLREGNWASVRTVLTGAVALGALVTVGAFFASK

MCL-1 = MCL-1 (Homo sapiens, UniProt Q07820); conditions: background statement; cited from earlier work
[1] = tested on: MCL-1-addicted cancer cell-line H82; assay: apoptosis induction in MCL-1-addicted cancer cell line H82; type: cell-based; conditions: H82 cells, FIG. 1B
[2] = tested on: MCL-1-addicted cancer cell-line, H23; assay: apoptosis induction in MCL-1-addicted cancer cell line H23; type: cell-based; conditions: H23 cells; for induction of apoptosis: FIG. 1B
[3] = tested on: DMS53, SW1417, and H82 cell lines; assay: apoptotic induction in DMS53, SW1417 and H82 cell lines (selectively addicted to BCL-2, BCL-XL and MCL-1); type: cell-based; conditions: H82 versus DMS53 and SW1417, FIG. 2B

BCL-XL, sequence (Q07817 whole entry, species assumed): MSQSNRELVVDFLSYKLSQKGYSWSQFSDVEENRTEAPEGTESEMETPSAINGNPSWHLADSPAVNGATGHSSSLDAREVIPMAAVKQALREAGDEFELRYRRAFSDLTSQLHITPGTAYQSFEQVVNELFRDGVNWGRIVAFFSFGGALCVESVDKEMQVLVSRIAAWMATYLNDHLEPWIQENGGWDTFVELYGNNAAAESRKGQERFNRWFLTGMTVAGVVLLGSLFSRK
MCL-1, sequence (Q07820 whole entry, species assumed): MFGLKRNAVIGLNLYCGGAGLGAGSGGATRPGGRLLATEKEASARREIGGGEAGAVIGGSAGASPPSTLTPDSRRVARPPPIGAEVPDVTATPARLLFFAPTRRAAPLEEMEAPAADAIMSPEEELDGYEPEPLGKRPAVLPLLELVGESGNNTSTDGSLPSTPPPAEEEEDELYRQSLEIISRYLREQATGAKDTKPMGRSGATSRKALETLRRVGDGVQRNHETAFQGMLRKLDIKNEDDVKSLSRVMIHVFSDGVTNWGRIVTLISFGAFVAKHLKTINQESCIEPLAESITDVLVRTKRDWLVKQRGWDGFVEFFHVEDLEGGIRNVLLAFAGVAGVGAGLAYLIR
BCL-2, sequence (P10415 whole entry, species assumed): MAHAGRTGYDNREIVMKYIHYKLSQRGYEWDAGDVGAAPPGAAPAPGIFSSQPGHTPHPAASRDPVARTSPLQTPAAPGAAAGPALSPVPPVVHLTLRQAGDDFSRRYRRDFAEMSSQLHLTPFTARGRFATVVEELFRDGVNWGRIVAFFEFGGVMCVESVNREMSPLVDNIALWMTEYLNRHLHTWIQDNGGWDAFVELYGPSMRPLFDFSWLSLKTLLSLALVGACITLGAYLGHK

SMILES | binding affinity to BCL-2 (BCL-2) | binding affinity to BCL-XL (BCL-XL) | binding affinity to BCL-W (BCL-W) | inhibition of MCL-1 (MCL-1) | induction of apoptosis ([1]; 1 µM of compound) | induction of apoptosis ([1]; 1 μM of compound) | induction of apoptosis ([2]; 1 µM of compound) | induction of apoptosis ([2]; 1 μM of compound) | EC50 ([2]; Homo sapiens, NCI-H23, FIG. 1A, read-out: EC50 of inducing apoptosis) | selectivity of apoptosis induction in MCL-1 addicted cancer cell line over BCL-2 or BCL-XL addicted cancer cell lines [3]
CC1(C)CCC(c2ccc(Cl)cc2)=C(CN2CCN(c3ccc(C(=O)NS(=O)(=O)c4ccc(N[C@H](CCN5CCOCC5)CSc5ccccc5)c(S(=O)(=O)C(F)(F)F)c4)cc3)CC2)C1 [ABT-263] | high affinity | high affinity | high affinity | do not inhibit |  |  |  |  |  | 
CN(C)CC[C@H](CSc1ccccc1)Nc1ccc(S(=O)(=O)NC(=O)c2ccc(N3CCN(Cc4ccccc4-c4ccc(Cl)cc4)CC3)cc2)cc1[N+](=O)[O-] [ABT-737, (R)-4-(4-((4′-chloro-[1,1′-biphenyl]-2-yl)methyl)piperazin-1-yl)-N-((4-((−4-(dimethylamino)-1-(phenylthio)butan-2-yl)amino)-3-nitrophenyl)sulfonyl)benzamide] | high affinity | high affinity | high affinity | do not inhibit |  |  |  |  |  | 
CCOC(=O)c1c(C)oc2cc(Br)c(NS(=O)(=O)c3ccc(OC)cc3)cc12 [Compound 1] |  |  |  |  | robust apoptosis | robust apoptosis | robust apoptosis | robust apoptosis | 600 nM | selectively induce apoptosis
